According to patent US20260125375A1 (Pfizer Inc., priority 2022, published 2026):

Legend:
[1] = molecular target: T1, CBL-B (residues 36-427) (Homo sapiens, UniProt Q13191); assay: Ligand Displacement Assay (LDA), HTRF competitive binding against BODIPY-labeled fluorescent tracer, CBL-B; settings: geometric mean of the number of tests, read-out: CBL-B Ki (nM) GMean
T1 construct: Purified CBL-B (residues 36-427) and C-CBL (residues 46-435) proteins from baculovirus-infected insect cells; made in house; host or cells: baculovirus-infected insect cells
From the text: (§1) Ligand Displacement Assay (LDA)
(§2) The purpose of the homogeneous time-resolved fluorescence energy transfer (HTRF) ligand displacement assay is to determine whether the compounds of the disclosure are competitive with a BODIPY-labeled compound; “fluorescent tracer” aka [6-cyclopropyl-5-(17-{5-[(3,5-dimethyl-2H-pyrrol-2-ylidene-KN)methyl]-1H-pyrrol-2-yl-κN}-15-oxo-5,8,11-trioxa-2,14-diazaheptadecan-1-yl)-N-(3-{3-[(4-methyl-4H-1,2,4-triazol-3-yl)methyl]oxetan-3-yl}phenyl)pyridine-2-carboxamidato](difluorido)boron and to assess CBL-B binding selectivity over C-CBL. The synthesis of this fluorescent tracer compound is described below.
(§3) Purified CBL-B (residues 36-427) and C-CBL (residues 46-435) proteins from baculovirus-infected insect cells were biotin labeled on their amino-terminal AviTag™ epitopes by the E. coli biotin ligase BirA to bind terbium-labeled streptavidin (SA-Tb). After optimizing the assays and determining KD values for the fluorescent tracer to CBL-B and C-CBL, compounds were tested using three-fold serial dilutions in duplicate from a top concentration of […] with a final DMSO concentration of 2%. […] The Ki (nM) values reported are the geometric means (GMean) of the number of tests conducted.

[2] = molecular target: T2, C-CBL (residues 46-435) (Homo sapiens, UniProt P22681); assay: Ligand Displacement Assay (LDA), HTRF competitive binding against BODIPY-labeled fluorescent tracer, C-CBL; settings: geometric mean of the number of tests, read-out: C-CBL Ki (nM) GMean
T2 construct: Purified CBL-B (residues 36-427) and C-CBL (residues 46-435) proteins from baculovirus-infected insect cells; made in house; host or cells: baculovirus-infected insect cells
T2 sequence (P22681 46-435): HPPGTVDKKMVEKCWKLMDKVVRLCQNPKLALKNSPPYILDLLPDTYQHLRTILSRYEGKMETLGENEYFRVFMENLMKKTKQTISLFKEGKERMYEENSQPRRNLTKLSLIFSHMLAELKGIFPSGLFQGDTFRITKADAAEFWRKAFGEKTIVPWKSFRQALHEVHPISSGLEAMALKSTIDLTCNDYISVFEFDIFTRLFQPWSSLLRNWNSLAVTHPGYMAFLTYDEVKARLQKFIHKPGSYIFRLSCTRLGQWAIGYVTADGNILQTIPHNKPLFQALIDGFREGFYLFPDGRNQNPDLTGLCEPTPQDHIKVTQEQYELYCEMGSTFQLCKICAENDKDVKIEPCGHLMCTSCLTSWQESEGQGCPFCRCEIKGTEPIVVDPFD
From the text: as §1, §2, §3

[3] = molecular target: T3, WT CBL-B (36-427) (Homo sapiens, UniProt Q13191); assay: Surface Plasmon Resonance (SPR) assay, binding affinity and kinetics, CBL-B; settings: SPR at 10° C., biotinylated WT CBL-B (36-427) on streptavidin chip; geometric mean; read-out: CBL-B SPR Kd (nM) GMean
T3 construct: N-terminal biotinylated WT CBL-B (36-427) and C-CBL (46-435) were captured on a streptavidin (SA) coated sensor chip
Protocol: (§4) Surface Plasmon Resonance (SPR) Assay
(§5) The purpose of the SPR assay is to evaluate the binding affinity and kinetics of the compound of disclosure binding to CBL-B and C-CBL.
(§6) The binding affinity and kinetics of compound binding to CBL-B and C-CBL were measured by Surface Plasmon Resonance (SPR) using either Biacore S200, 8K or 8K+ (Cytiva, Marlborough, MA) instruments. N-terminal biotinylated WT CBL-B (36-427) and C-CBL (46-435) were captured on a streptavidin (SA) coated sensor chip to achieve approximately 5000 to 6000 RUs of surface density. Un-functionalized SA surfaces with no immobilized protein served as reference for binding kinetic analysis. All the samples were prepared in buffer consisting of 10 mM HEPES, 150 mM NaCl, 0.05% Tween-20, 5% glycerol, […], 2% DMSO, pH 7.2. The same buffer was used as the running buffer during the experiments. Compound binding kinetics were measured in either multi-cycle or single-cycle kinetic format.
(§7) Multi-cycle kinetic analysis (MCK): A two-fold, 10-point serial dilution of test compounds was set-up in a 96-well microplate (Greiner; Cat #650101) with a top concentration of either 10 μM or 100 μM. Binding kinetics was measured at 10° C. by injecting serial dilution of compounds onto both reference and CBL immobilized channels at a flow rate of 100 μL/min and association time of 90 seconds. Compound dissociation was monitored for >400 seconds during each cycle. No additional regeneration was used. DMSO calibration curve was obtained before and after compound analysis by injecting 0-4% of DMSO in assay buffer. A suitable compound with known affinity and kinetics was tested once in every experiment as a positive control to assess activity of the captured proteins on the surface.
(§8) Single-cycle kinetic analysis (SCK): A 3-fold, 6-point serial dilution of compounds was set-up in a deep 96-well microplate (Greiner Bio; Cat #780201) with the highest concentration of 1 μM (concentration range: […]). Binding kinetics was measured at 10° C. by injecting serial dilutions of compounds in increasing order onto reference as well as CBL immobilized channels at a flow rate of 100 μL/min and association time of 120 seconds. Compound dissociation was monitored for >5400 seconds. Two buffer blanks were also run in a single-cycle kinetics format before the compound run for double referencing. No additional regeneration was used. DMSO calibration curve was obtained before and after compound analysis by injecting 0-4% of DMSO in the assay buffer. A suitable compound with known affinity and kinetics was tested once in every experiment as a positive control to assess activity of the captured proteins on the surface.

[4] = molecular target: T4, C-CBL (46-435) (Homo sapiens, UniProt P22681); assay: Surface Plasmon Resonance (SPR) assay, binding affinity and kinetics, C-CBL; settings: SPR at 10° C., biotinylated C-CBL (46-435) on streptavidin chip; geometric mean; read-out: C-CBL SPR Kd (nM) GMean
T4 construct: N-terminal biotinylated WT CBL-B (36-427) and C-CBL (46-435) were captured on a streptavidin (SA) coated sensor chip
T4 sequence (P22681 46-435): T2 sequence (P22681 46-435)
Protocol: as §4, §5, §6, §7, §8

Row | SMILES | Ki [1] [nM] | Ki [2] [nM] | Kd [3] [nM] | Kd [4] [nM]
1 | CC(CN)c1nc(C(F)(F)F)cc2c(-c3cccc(C4(Cc5nncn5C)COC4)c3)n[nH]c12 (single isomer, unassigned) [Example K6, (2ξ)-2-[3-(3-{3-[(4-methyl-4H-1,2,4-triazol-3-yl)methyl]oxetan-3-yl}phenyl)-5-(trifluoromethyl)-1H-pyrazolo[3,4-c]pyridin-7-yl]propan-1-amine] | 26.5 | 78.6 | 11.3 | 125
2 | Cn1cnnc1[C@@H](c1cccc(-c2n[nH]c3c(CN4C[C@@H](O)[C@H](O)C4)nc(C(F)(F)F)cc23)c1)C1CCC1 [Example C74, (3R,4R)-1-{[3-{3-[(R)-cyclobutyl(4-methyl-4H-1,2,4-triazol-3-yl)methyl]phenyl}-5-(trifluoromethyl)-1H-pyrazolo[3,4-c]pyridin-7-yl]methyl}pyrrolidine-3,4-diol] | 7.5 | 83.1 | 3.2 | 103
3 | Cn1cnnc1CC1(c2cccc(-c3n[nH]c4c(CN[C@@H]5CCOC5)nc(C(F)(F)F)cc34)c2)COC1 [Example C59] | 45.2 | 171 | 16.8 | 230
4 | C[C@H](CO)c1nc(C(F)(F)F)cc2c(-c3cccc([C@H](c4nncn4C)C4CCC4)c3)n[nH]c12 (single isomer, unassigned) [Example K3, (2ξ)-2-[3-{3-[(ξ)-cyclobutyl(4-methyl-4H-1,2,4-triazol-3-yl)methyl]phenyl}-5-(trifluoromethyl)-1H-pyrazolo[3,4-c]pyridin-7-yl]propan-1-ol] | 11 | 96.5 | 4 | 160
5 | CC(C)NC(C)c1nc(C(F)(F)F)cc2c(-c3cccc(C4(Cc5nncn5C)COC4)c3)n[nH]c12 (single isomer, unassigned) [Example C79, N-{(1ξ)-1-[3-(3-{3-[(4-methyl-4H-1,2,4-triazol-3-yl)methyl]oxetan-3-yl}phenyl)-5-(trifluoromethyl)-1H-pyrazolo[3,4-c]pyridin-7-yl]ethyl}propan-2-amine] | 20.4 | 94.1 | 3.2 | 121
6 | C[C@H](c1nc(C(F)(F)F)cc2c(-c3cccc(C4(Cc5nncn5C)COC4)c3)n[nH]c12)N1CC(F)(F)C1 (single isomer, unassigned) [Example D46] | 46.5 | 250 | 12.2 | 184
7 | C[C@@H](c1nc(C(F)(F)F)cc2c(-c3cccc(C4(Cc5nncn5C)COC4)c3)n[nH]c12)N1CCCC1 (single isomer, unassigned) [Example D47] | 36.9 | 162 | 16.3 | 193
8 | C[C@@H](c1nc(C(F)(F)F)cc2c(-c3cccc(C4(Cc5nncn5C)COC4)c3)n[nH]c12)N1CC[C@H](F)C1 (single isomer, unassigned) [Example D97] | 25 | 139 | 31.9 | 230
9 | Cn1cnnc1[C@@H](c1cccc(-c2n[nH]c3c(CN[C@H]4C[C@@H](O)C4)nc(C(F)(F)F)cc23)c1)C1CCC1 [Example C120, (1s,3s)-3-({[3-{3-[(R)-cyclobutyl(4-methyl-4H-1,2,4-triazol-3-yl)methyl]phenyl}-5-(trifluoromethyl)-1H-pyrazolo[3,4-c]pyridin-7-yl]methyl}amino)cyclobutan-1-ol] | 13.6 | 105 | 11.1 | 156
10 | CC(N[C@H]1CCOC1)c1nc(C(F)(F)F)cc2c(-c3cccc(C4(Cc5nncn5C)COC4)c3)n[nH]c12 (single isomer, unassigned) [Example C81] | 6.5 | 18.2 | 4.6 | 56.5
11 | CN[C@H](C)c1nc(C(F)(F)F)cc2c(-c3cccc(C4(Cc5nncn5C)COC4)c3)n[nH]c12 (single isomer, unassigned) [Example D38] | 34 | 135 | 10 | 110
12 | Cn1cnnc1CC1(c2cccc(-c3n[nH]c4c(CN5CC[C@@H](F)C5)nc(C(F)(F)F)cc34)c2)COC1 [Example C71, 7-{[(3R)-3-fluoropyrrolidin-1-yl]methyl}-3-(3-{3-[(4-methyl-4H-1,2,4-triazol-3-yl)methyl]oxetan-3-yl}phenyl)-5-(trifluoromethyl)-1H-pyrazolo[3,4-c]pyridine] | 25.5 | 124 | 10.8 | 108
13 | CC(=O)NCC(C)c1nc(C(F)(F)F)cc2c(-c3cccc([C@H](c4nncn4C)C4CCC4)c3)n[nH]c12 (single isomer, unassigned) [Example M4] | 20.5 | 157 | 10.3 | 250
14 | CCC(c1cccc(-c2n[nH]c3cnc(C(F)(F)F)cc23)c1)c1nncn1C (single isomer, unassigned) [Example A2, 3-{3-[(1ξ)-1-(4-methyl-4H-1,2,4-triazol-3-yl)propyl]phenyl}-5-(trifluoromethyl)-1H-pyrazolo[3,4-c]pyridine] | 80.4 | 224 | 35.8 | 251
15 | Cn1cnnc1[C@@H](c1cccc(-c2n[nH]c3c(CN[C@H]4CC[C@@H](O)C4)nc(C(F)(F)F)cc23)c1)C1CCC1 [Example D87] | 12.2 | 112 | 4.8 | 128
16 | CN1CCC[C@@H]1COc1nc(C(F)(F)F)cc2c(-c3cccc(C4(Cc5nncn5C)COC4)c3)n[nH]c12 [Example J6, 7-{[(2R)-1-methylpyrrolidin-2-yl]methoxy}-3-(3-{3-[(4-methyl-4H-1,2,4-triazol-3-yl)methyl]oxetan-3-yl}phenyl)-5-(trifluoromethyl)-1H-pyrazolo[3,4-c]pyridine] | 48.9 | 196 | – | –
17 | CC(O)c1nc(C2CC2)cc2c(-c3cccc(C4(Cc5nncn5C)COC4)c3)n[nH]c12 (single isomer, unassigned) [Example H5, (1ξ)-1-[5-cyclopropyl-3-(3-{3-[(4-methyl-4H-1,2,4-triazol-3-yl)methyl]oxetan-3-yl}phenyl)-1H-pyrazolo[3,4-c]pyridin-7-yl]ethan-1-ol] | 28.5 | 93.6 | – | –
